Test results as given in patent US20220348569A1 (priority 2021, published 2022).
Values joined by “and” are separate entries in the source; they are usually repeats but may differ in a detail not shown here. Equal entries are not always repeated. Where two headings read alike, the source gives them in different places.

Test system: SARS-CoV-2 pseudoviruses carrying spike mutations of B.1.1.7 UK, B.1.351 RSA and B.1.617.2 India (Delta) variants
Type: cell-based

Structure (SMILES) | antiviral activity against mutant pseudoviruses (in words) | IC50 (read-out: IC50) | IC50 (read-out: IC50 in the range for all the pseudovirus variants) [nM] | IC50 (read-out: IC50 against B.1.617.2 Delta single, double and triple mutant variants) [nM]
O=C(O)c1cc(-c2ccc(/C=C3\SC(=S)N(CCc4ccccc4)C3=O)o2)ccc1Cl [Compound 1, (Z)-2-Chloro-5-(5-((4-oxo-3-phenethyl-2-thioxothiazolidin-5-ylidene)methyl)furan-2-yl)benzoic acid] | potent antiviral activity against all mutant pseudoviruses | 57 nM and 33 nM | – | –
O=C(O)c1cccc(-c2ccc(/C=C3\SC(=S)N(CCc4ccccc4)C3=O)o2)c1 [Compound 2] | highly potent inhibitor against all mutant pseudoviruses | – | 35 to 88.7 | –
O=C(O)c1cc(-c2ccc(/C=C3\SC(=S)N(CCc4ccccc4)C3=O)o2)ccc1F [Compound 3] | slightly less efficient against all the pseudoviruses tested | 232 ± 17 nM | – | –
Cc1ccc(-c2ccc(/C=C3\SC(=S)N(CCc4ccccc4)C3=O)o2)cc1C(=O)O [Compound 4] | – | – | – | 148 to 239
Cc1c(C(=O)O)cccc1-c1ccc(/C=C2\SC(=S)N(CCc3ccccc3)C2=O)o1 [Compound 5] | poor/no activity | > 2000 nM and 1730 nM and 1850 nM and 1720 nM | – | –
